melting point: 179 to 182 °C
SMILES: CCn1nccc1N(C(=O)COc1cccc(O)c1C=O)C(C)C [compound 22, N-(1-ethyl-1H-pyrazol-5-yl)-2-(2-formyl-3-hydroxyphenoxy)-N-isopropylacetamide]
